The values below come from PMC9700480 (Drug Design, Development and Therapy, 2022).

The test system of the assay is alloxan-induced diabetic mice. Description: In vivo anti-diabetic activity in alloxan-induced diabetic mice. More on the design: species or system albino mice (strain balb/c).

For the compound `C[C@H]1O[C@H](O[C@H]2[C@H](O)[C@@H](O)[C@@H](O[C@H]3[C@H](O)[C@@H](O)C(O)O[C@@H]3CO)O[C@@H]2CO)[C@H](O)[C@@H](O)[C@@H]1N[C@H]1C=C(CO)[C@@H](O)[C@H](O)[C@H]1O` (some centres unmarked) [Acarbose], for the setting “day 21, compared with diabetic control”, the Creatinine content result was “significant (p < 0.05) decrease in creatinine content”. The “level of insulin in serum” value (day 21, FA2 at high dose) was found to be 25 ± 3.1 pmol/L.
